In ChEMBL document CHEMBL5036318, “Synthesis and Biological Evaluation of Phosphoester and Phosphorothioate Prodrugs of STING Agonist 3',3'-c-Di(2'F,2'dAMP)” (J Med Chem, 2021):
pEC50: −log10 of the molar value.

What was measured:
[1] = biological target: Stimulator of interferon genes protein (Homo sapiens, UniProt Q86WV6, G230A/R293Q/R71H); test: Activation of human STING HAQ mutant expressed in digitonin treated HEK293T cells co-expressing IRF3-activated ISRE assessed as IRF3 reporter activation by luciferase reporter gene assay; type: cell-based
[2] = Induction of INF-alpha production in healthy human PBMC incubated for 16 hrs; type: functional, tissue-based
[3] = Induction of TNF-alpha production in healthy human PBMC incubated for 16 hrs; type: functional, tissue-based
[4] = biological target: T1, Stimulator of interferon genes protein (Homo sapiens, UniProt Q86WV6); test: Activation of wild-type human STING expressed in HEK293T cells co-expressing IRF3-activated ISRE assessed as IRF3 reporter activation measured after 30 mins by luciferase reporter gene assay; type: cell-based
[5] = biological target: T1, Stimulator of interferon genes protein; test: Binding affinity to wild type STING (unknown origin) assessed as change in melting temperature by differential scanning fluorimetry; details: filed as activator
[6] = Induction of INF-gamma production in healthy human PBMC incubated for 16 hrs; type: functional, tissue-based
[7] = biological target: Stimulator of interferon genes protein (Homo sapiens, UniProt Q86WV6, G230A/R293Q); test: Activation of human STING QA mutant expressed in digitonin treated HEK293T cells co-expressing IRF3-activated ISRE assessed as IRF3 reporter activation by luciferase reporter gene assay; type: cell-based
[8] = biological target: T1, Stimulator of interferon genes protein; test: Activation of wild-type human STING expressed in digitonin treated HEK293T cells co-expressing IRF3-activated ISRE assessed as IRF3 reporter activation by luciferase reporter gene assay; type: cell-based
[9] = biological target: T1, Stimulator of interferon genes protein; test: Activation of wild-type human STING expressed in human THP1-Dual cells co-expressing IRF3-activated ISRE assessed as IRF3 reporter activation measured after 7 hrs by luciferase reporter gene assay; type: cell-based
[10] = biological target: T1, Stimulator of interferon genes protein; test: Activation of wild-type human STING expressed in digitonin treated human THP1-Dual cells co-expressing IRF3-activated ISRE assessed as IRF3 reporter activation measured after 30 mins by luciferase reporter gene assay; type: cell-based
[11] = Activation of human STING Q mutant expressed in digitonin treated HEK293T cells co-expressing IRF3-activated ISRE assessed as IRF3 reporter activation by luciferase reporter gene assay; type: cell-based; details: HEK-293T
cells = details: Homo sapiens, HEK-293T
Description: Activation of human STING REF mutant expressed in digitonin treated HEK293T cells co-expressing IRF3-activated ISRE assessed as IRF3 reporter activation by luciferase reporter gene assay

[12] = Stability in mouse plasma assessed as half life; type: ADME, cell-free
[13] = biological target: T1, Stimulator of interferon genes protein; test: Activation of wild-type human STING expressed in HEK293T cells co-expressing IRF3-activated ISRE assessed as IRF3 reporter activation measured after 7 hrs by luciferase reporter gene assay; type: cell-based
[14] = Potency index, ratio of test compound EC50 to prodrug EC50 for induction of INF-alpha production in healthy human PBMC incubated for 16 hrs; type: functional
[15] = Potency index, ratio of test compound EC50 to prodrug EC50 for induction of INF-gamma production in healthy human PBMC incubated for 16 hrs; type: functional
[16] = Stability in human plasma assessed as half life; type: ADME, cell-free
[17] = biological target: T1, Stimulator of interferon genes protein; test: Binding affinity to human STING expressed in […] cells assessed as change in melting temperature by Cell-based assay; details: HEK293T, filed as activator

Stimulator of interferon genes protein (Homo sapiens, UniProt Q86WV6, G230A/R293Q), sequence (Q86WV6 whole entry G230A/R293Q): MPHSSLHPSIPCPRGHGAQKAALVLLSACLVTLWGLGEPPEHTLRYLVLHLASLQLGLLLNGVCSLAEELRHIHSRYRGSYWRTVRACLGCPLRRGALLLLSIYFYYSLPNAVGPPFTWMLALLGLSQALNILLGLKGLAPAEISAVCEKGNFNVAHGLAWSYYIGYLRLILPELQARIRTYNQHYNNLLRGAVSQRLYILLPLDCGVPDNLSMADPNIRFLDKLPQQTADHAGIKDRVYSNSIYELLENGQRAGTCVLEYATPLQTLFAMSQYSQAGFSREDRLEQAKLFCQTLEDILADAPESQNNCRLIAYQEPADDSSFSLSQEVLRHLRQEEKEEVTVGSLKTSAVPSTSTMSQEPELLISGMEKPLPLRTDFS
T1 sequence (Q86WV6 whole entry): as the sequence (Q86WV6 whole entry G230A/R293Q) above, with A230G, Q293R counted along it
Stimulator of interferon genes protein (Homo sapiens, UniProt Q86WV6, G230A/R293Q/R71H), sequence (Q86WV6 whole entry R71H/G230A/R293Q): as the sequence (Q86WV6 whole entry G230A/R293Q) above, with R71H counted along it

| pEC50 [1] | pEC50 [4] | ΔTm [5] [°C] | pEC50 [7] | pEC50 [8] | pEC50 [9] | pEC50 [10] | pEC50 [11] | pEC50 (cells) | ΔTm [17] [°C] | Compound | pEC50 [2] | pEC50 [3] | pEC50 [6] | half-life [12] [min] | pEC50 [13] | Ratio EC50 [14] | Ratio EC50 [15] | half-life [16] [h] |
| --- | --- | --- | --- | --- | --- | --- | --- | --- | --- | --- | --- | --- | --- | --- | --- | --- | --- | --- |
| 6.06 | 5.64 | 5.5 | 6.59 | 6.77 | 5.11 | 4.92 | 5.39 | 5.06 | – | Nc1ncnc2c1ncn2[C@@H]1O[C@@H]2CO[P@](=O)(S)O[C@H]3[C@@H](F)[C@H](n4cnc5c(N)ncnc54)O[C@@H]3CO[P@](=O)(S)O[C@H]2[C@H]1F | 4.53 | 4.57 | 5.01 | – | – | – | – | – |
| 7.00 | – | 14.7 | 7.40 | 7.40 | – | – | 7.00 | – | 14.7 | Nc1ncnc2c1ncn2[C@@H]1O[C@@H]2CO[P@@](=O)(S)O[C@H]3[C@@H](F)[C@H](n4cnc5c(N)ncnc54)O[C@@H]3COP(=O)(O)O[C@H]2[C@H]1F | – | – | – | – | – | – | – | – |
| 7.30 | 6.28 | 11.2 | – | 7.70 | 6.51 | 5.52 | 6.68 | 6.44 | 11.2 | Nc1ncnc2c1ncn2[C@@H]1O[C@@H]2CO[P@@](=O)(S)O[C@H]3[C@@H](F)[C@H](n4cnc5c(N)ncnc54)O[C@@H]3CO[P@](=O)(S)O[C@H]2[C@H]1F | 4.75 | 5.14 | 4.95 | – | – | – | – | – |
| 7.10 | 5.15 | 15.9 | 7.40 | 7.40 | 6.44 | 5.45 | 7.10 | 6.89 | – | Nc1ncnc2c1ncn2[C@@H]1O[C@@H]2CO[P@@](=O)(S)O[C@H]3[C@@H](F)[C@H](n4cnc5c(N)ncnc54)O[C@@H]3CO[P@@](=O)(S)O[C@H]2[C@H]1F | 4.41 | 5.03 | 5.22 | – | – | – | – | – |
| 6.89 | – | 8.9 | 7.15 | 8.15 | – | – | 6.35 | 6.04 | 8.9 | Nc1ncnc2c1ncn2[C@@H]1O[C@@H]2CO[P@](=O)(S)O[C@H]3[C@@H](F)[C@H](n4cnc5c(N)ncnc54)O[C@@H]3COP(=O)(O)O[C@H]2[C@H]1F | – | – | – | – | – | – | – | – |
| 6.72 | – | – | 6.77 | – | – | – | 5.15 | – | – | Nc1ncnc2c1ncn2[C@@H]1O[C@@H]2COP(=O)(O)O[C@H]3[C@@H](O)[C@H](n4cnc5c(N)ncnc54)O[C@@H]3COP(=O)(O)O[C@H]2[C@H]1O | – | – | – | – | – | – | – | – |
| 6.89 | 4.02 | – | – | 7.70 | 5.99 | 4.72 | 6.85 | 6.74 | – | Nc1ncnc2c1ncn2[C@@H]1O[C@@H]2COP(=O)(O)O[C@H]3[C@@H](F)[C@H](n4cnc5c(N)ncnc54)O[C@@H]3COP(=O)(O)O[C@H]2[C@H]1F | 4.29 | 4.89 | 5.08 | – | 5.10 | – | – | – |

| Compound | pEC50 [1] | pEC50 [4] | ΔTm [5] [°C] | pEC50 [7] | pEC50 [8] | pEC50 [9] | pEC50 [10] | pEC50 [11] | pEC50 (cells) | ΔTm [17] [°C] | pEC50 [2] | pEC50 [3] | pEC50 [6] | half-life [12] [min] | pEC50 [13] | Ratio EC50 [14] | Ratio EC50 [15] | half-life [16] [h] |
| --- | --- | --- | --- | --- | --- | --- | --- | --- | --- | --- | --- | --- | --- | --- | --- | --- | --- | --- |
| CC(C)(C)C(=O)OCO[P@@]1(=O)OC[C@H]2O[C@@H](n3cnc4c(N)ncnc43)[C@H](F)[C@@H]2O[P@](=O)(OCOC(=O)C(C)(C)C)OC[C@H]2O[C@@H](n3cnc4c(N)ncnc43)[C@H](F)[C@@H]2O1 | – | 7.15 | – | – | – | 7.30 | 6.74 | – | – | – | 6.36 | 6.62 | 7.15 | < 2 | 7.40 | 115 | 110 | 1 |
